Laboratory results published in ChEMBL document CHEMBL1177848, “Synthesis of novel 6,6a,7,8-tetrahydro-5H-naphtho[1,2-e]pyrimido[4,5-b][1,4]diazepines under microwave irradiation as potential anti-tumor agents” (2010).
The source made the active and inactive calls.

How the values were obtained:
Format in all cases: functional, cell-based
OVCAR-3 = experiment: Growth inhibition of human OVCAR-3 cells at 1 uM after 48 hrs by sulforhodamine B assay
Malme-3M = experiment: Growth inhibition of human MALME-3M cells at 1 uM after 48 hrs by sulforhodamine B assay
MDA-MB-435 = experiment: Growth inhibition of human MDA-MB-435 cells at 1 uM after 48 hrs by sulforhodamine B assay
SK-MEL-5 = experiment: Growth inhibition of human SK-MEL-5 cells at 1 uM after 48 hrs by sulforhodamine B assay
RPMI-8226 = experiment: Growth inhibition of human RPMI8226 cells at 1 uM after 48 hrs by sulforhodamine B assay
BT-549 = experiment: Growth inhibition of human BT549 cells at 1 uM after 48 hrs by sulforhodamine B assay
EKVX = experiment: Growth inhibition of human EKVX cells at 1 uM after 48 hrs by sulforhodamine B assay
CCRF-CEM = experiment: Growth inhibition of human CCRF-CEM cells at 1 uM after 48 hrs by sulforhodamine B assay
A549 = experiment: Growth inhibition of human A549 cells at 1 uM after 48 hrs by sulforhodamine B assay
ACHN = experiment: Growth inhibition of human ACHN cells at 1 uM after 48 hrs by sulforhodamine B assay
SF530 = experiment: Growth inhibition of human SF530 cells at 1 uM after 48 hrs by sulforhodamine B assay
TK-10 = experiment: Growth inhibition of human TK10 cells at 1 uM after 48 hrs by sulforhodamine B assay
HCC 2998 = experiment: Growth inhibition of human HCC2998 cells at 1 uM after 48 hrs by sulforhodamine B assay
OVCAR-4 = experiment: Growth inhibition of human OVCAR4 cells at 1 uM after 48 hrs by sulforhodamine B assay
IGROV-1 = experiment: Growth inhibition of human IGROV1 cells at 1 uM after 48 hrs by sulforhodamine B assay
SN12C = experiment: Growth inhibition of human SN12C cells at 1 uM after 48 hrs by sulforhodamine B assay
786-0 = experiment: Growth inhibition of human 786-0 cells at 1 uM after 48 hrs by sulforhodamine B assay
PC-3 = experiment: Growth inhibition of human PC3 cells at 1 uM after 48 hrs by sulforhodamine B assay
LOX IMVI = experiment: Growth inhibition of human LOXIMVI cells at 1 uM after 48 hrs by sulforhodamine B assay
M14 = experiment: Growth inhibition of human M14 cells at 1 uM after 48 hrs by sulforhodamine B assay
HCT-15 = experiment: Growth inhibition of human HCT15 cells at 1 uM after 48 hrs by sulforhodamine B assay
KM12 = experiment: Growth inhibition of human KM12 cells at 1 uM after 48 hrs by sulforhodamine B assay
SF-295 = experiment: Growth inhibition of human SF295 cells at 1 uM after 48 hrs by sulforhodamine B assay
HOP-92 = experiment: Growth inhibition of human HOP92 cells at 1 uM after 48 hrs by sulforhodamine B assay
UO-31 = experiment: Growth inhibition of human UO31 cells at 1 uM after 48 hrs by sulforhodamine B assay
Hs-578T = experiment: Growth inhibition of human Hs 578T cells at 1 uM after 48 hrs by sulforhodamine B assay
HCT-116 = experiment: Growth inhibition of human HCT116 cells at 1 uM after 48 hrs by sulforhodamine B assay
SK-MEL-2 = experiment: Growth inhibition of human SK-MEL-2 cells at 1 uM after 48 hrs by sulforhodamine B assay
HL-60 = experiment: Growth inhibition of human HL-60(TB) cells at 1 uM after 48 hrs by sulforhodamine B assay
SF-268 = experiment: Growth inhibition of human SF268 cells at 1 uM after 48 hrs by sulforhodamine B assay
A498 = experiment: Growth inhibition of human A498 cells at 1 uM after 48 hrs by sulforhodamine B assay
RXF 393 = experiment: Growth inhibition of human RXF393 cells at 1 uM after 48 hrs by sulforhodamine B assay
NCI/ADR-RES = experiment: Growth inhibition of human NCI/ADR-RES cells at 1 uM after 48 hrs by sulforhodamine B assay
MDA-MB-231 = experiment: Growth inhibition of human MDA-MB-231 cells at 1 uM after 48 hrs by sulforhodamine B assay
NCI-H226 = experiment: Growth inhibition of human NCI-H226 cells at 1 uM after 48 hrs by sulforhodamine B assay
NCI-H522 = experiment: Growth inhibition of human NCI-H522 cells at 1 uM after 48 hrs by sulforhodamine B assay
UACC-62 = experiment: Growth inhibition of human UACC62 cells at 1 uM after 48 hrs by sulforhodamine B assay
SNB-75 = experiment: Growth inhibition of human SNB75 cells at 1 uM after 48 hrs by sulforhodamine B assay
SW-620 = experiment: Growth inhibition of human SW620 cells at 1 uM after 48 hrs by sulforhodamine B assay
OVCAR-8 = experiment: Growth inhibition of human OVCAR8 cells at 1 uM after 48 hrs by sulforhodamine B assay
HOP-62 = experiment: Growth inhibition of human HOP62 cells at 1 uM after 48 hrs by sulforhodamine B assay
NCI-H322M = experiment: Growth inhibition of human […] cells at 1 uM after 48 hrs by sulforhodamine B assay
MDA-MB-468 = experiment: Growth inhibition of human MDA-MB-468 cells at 1 uM after 48 hrs by sulforhodamine B assay
DU-145 = experiment: Growth inhibition of human DU145 cells at 1 uM after 48 hrs by sulforhodamine B assay
MOLT-4 = experiment: Growth inhibition of human MOLT4 cells at 1 uM after 48 hrs by sulforhodamine B assay
NCI-H460 = experiment: Growth inhibition of human NCI-H460 cells at 1 uM after 48 hrs by sulforhodamine B assay
U-251 = experiment: Growth inhibition of human U251 cells at 1 uM after 48 hrs by sulforhodamine B assay
K562 = experiment: Growth inhibition of human K562 cells at 1 uM after 48 hrs by sulforhodamine B assay
NCI-H23 = experiment: Growth inhibition of human NCI-H23 cells at 1 uM after 48 hrs by sulforhodamine B assay
SF-539 = experiment: Growth inhibition of human SF539 cells at 1 uM after 48 hrs by sulforhodamine B assay
UACC-257 = experiment: Growth inhibition of human UACC257 cells at 1 uM after 48 hrs by sulforhodamine B assay
T47D = experiment: Growth inhibition of human T47D cells at 1 uM after 48 hrs by sulforhodamine B assay
SK-MEL-28 = experiment: Growth inhibition of human SK-MEL-28 cells at 1 uM after 48 hrs by sulforhodamine B assay
COLO 205 = experiment: Growth inhibition of human COLO205 cells at 1 uM after 48 hrs by sulforhodamine B assay
HT-29 = experiment: Growth inhibition of human HT-29 cells at 1 uM after 48 hrs by sulforhodamine B assay
MCF7 = experiment: Growth inhibition of human MCF7 cells at 1 uM after 48 hrs by sulforhodamine B assay
CAKI-1 = experiment: Growth inhibition of human Caki1 cells at 1 uM after 48 hrs by sulforhodamine B assay
SR = experiment: Growth inhibition of human SR cells at 1 uM after 48 hrs by sulforhodamine B assay

Measured: growth inhibition (GI)

Nc1ncnc2c1N=C1c3ccccc3CCC1C(c1ccccc1)N2 (stereo unspecified)
active: all assays above

Nc1ncnc2c1N=C1c3ccccc3CCC1C(c1ccc(Cl)cc1)N2 (stereo unspecified)
active: all assays above
